Four compounds from patent US10611778B2, “Fused bicyclic inhibitors of menin-MLL interaction” (Janssen Pharmaceutica NV, priority 2016, dated 2020) can be followed below.

Like-named read-outs stand apart in the source and are kept apart here.

In assay [1] the target is T1, Menin/MLL (menin, FITC-MBM1 peptide) (Homo sapiens, UniProt O00255, T541A).
T1 construct: 6xHis (C)
T1 sequence (O00255 with tags, fused parts or gaps T541A): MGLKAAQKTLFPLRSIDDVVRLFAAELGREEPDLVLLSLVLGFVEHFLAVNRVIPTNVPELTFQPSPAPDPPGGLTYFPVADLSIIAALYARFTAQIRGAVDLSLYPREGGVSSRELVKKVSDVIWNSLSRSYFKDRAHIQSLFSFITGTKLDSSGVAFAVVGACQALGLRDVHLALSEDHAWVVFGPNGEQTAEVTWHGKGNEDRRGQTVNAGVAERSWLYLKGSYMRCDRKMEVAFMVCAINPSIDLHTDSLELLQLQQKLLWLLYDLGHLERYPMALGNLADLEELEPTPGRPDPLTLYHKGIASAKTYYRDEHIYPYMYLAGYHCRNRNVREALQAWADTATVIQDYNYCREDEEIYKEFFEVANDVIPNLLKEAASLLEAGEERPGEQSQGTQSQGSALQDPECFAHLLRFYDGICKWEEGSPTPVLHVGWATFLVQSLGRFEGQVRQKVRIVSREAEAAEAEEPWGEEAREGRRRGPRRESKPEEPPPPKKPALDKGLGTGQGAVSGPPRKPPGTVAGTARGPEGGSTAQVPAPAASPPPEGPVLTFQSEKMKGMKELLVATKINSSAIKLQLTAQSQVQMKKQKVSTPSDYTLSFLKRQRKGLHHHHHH
Nature of the assay: Menin/MLL fluorescence polarization (FP) assay. Type of assay: binding. In short, it runs like this:
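Compound pre-incubated 10 min with 100 nM menin (40 mM Tris-HCl pH 7.5, 50 mM NaCl, 1 mM DTT, 0.001% Tween 20), then 5 nM FITC-MBM1 peptide added for 15 min at ambient temperature; 0.625% DMSO final. FP read at ex 485/em 520 nm. IC50 from 11-point three-fold dilutions from 31 μM, % inhibition vs saturating-competitor controls.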

The next assay relates to K562. The experiment in a line: Proliferation assay (spheroid assay) K562 control cell line. Particulars: Homo sapiens. The assay is classed as cell-based. How it is done: The anti-proliferative effect of menin/MLL protein/protein interaction inhibitor test compounds was assessed in human leukemia cell lines. The cell lines MV-4-11 and MOLM14 harbor MLL translocations and express the MLL fusion proteins MLL-AF4 and MLL-AF9, respectively, as well as the wildtype protein from the second allele. […] K562 and KG1 were used as a control cell lines containing two MLL wildtype alleles in order to exclude compounds that display general cytotoxic effects.
MV-4-11 and MOLM14 were cultured in RPMI-1640 (Sigma Aldrich) supplemented with 10% fetal bovine serum (HyClone), 2 mM L-glutamine (Sigma Aldrich) and 50 μg/ml gentamycin (Gibco). K562 were propagated in RPMI-1640 (Sigma Aldrich) supplemented with 20% fetal bovine serum (HyClone), 2 mM L-glutamine (Sigma Aldrich) and 50 μg/ml gentamycin (Gibco). KG1 were cultured in Iscove's MDM (Gibco) supplemented with 20% fetal bovine serum (HyClone), 2 mM L-glutamine (Sigma Aldrich) and 50 μg/ml gentamycin (Gibco).
In order to assess the anti-proliferative effects, 1,500 MV-4-11, 300 MOLM14, 750 K562 or 1,300 KG1 cells were seeded in 200 μl media per well in 96-well round bottom, ultra-low attachment plates (Costar, catalogue number 7007). Cell seeding numbers were chosen based on growth curves to ensure linear growth throughout the experiment. Test compounds were added at different concentrations and the DMSO content was normalized to 0.3%. Cells were incubated for 8 d at 37° C. and 5% CO2. Spheroid like growth was monitored in real-time by live-cell imaging (IncuCyteZOOM, Essenbio, 4× objective) acquiring one image every four hours for 8 d. Confluence (%) as a measure of spheroid size was determined using an integrated analysis tool.
In order to determine the cumulative effect of the test compounds over time, the area under the curve (AUC) in a plot of confluence against time was calculated. Confluence at the beginning of the experiment (t=0) was used as baseline for the AUC calculation.
Absolute IC50 values were calculated according to the following procedure: % Control=(AUC sample/AUC control)*100
AUC control=mean AUC of control values (cells without compound/DMSO as vehicle control)
A non-linear curve fit was applied using the least squares (ordinary) fit method to the plot of % control versus compound concentration. Based on this, the absolute IC50 value (half maximal inhibitory concentration of the test compound causing an anti-proliferative effect of 50% relative to the vehicle control) was calculated.

Setting [2] is: averaged values over all measurements, read-out: Menin FP assay (IC50).
The mark [3] stands for this setting: K562 control cell line, averaged values over all measurements, read-out: Spheroid assay K562 (IC50).

As to `FC(F)(F)Cc1cc2c(N3CC[C@H]4[C@H](CCN4Cc4ccc[nH]4)C3)ncnc2s1` (single isomer, unassigned) [Compound 8], the IC50 was 0.101 µM in assay [1] (individual measurements (not averaged), read-out: (1) Menin FP assay (IC50 (μM))) and > 15 µM in the assay on K562 (192 h, K562, 8 d, individual measurements (not averaged), read-out: (2) Spheroid assay K562 (IC50 (μM))).

As to `FC(F)(F)Cc1cc2c(N3CCC4C(CCN4Cc4ccccc4)C3)ncnc2s1` (centres unmarked) [Compound 1], the results for the IC50 (in assay [1] (setting [2]); with K562 (setting [3])) were 0.033 µM and 13.1 µM, respectively.

Take `FC(F)(F)Cc1cc2c(N3CCC4C3CCN4Cc3ccccc3)ncnc2s1` (centres unmarked) [Compound 2]: the IC50 was 0.34 µM in assay [1] (setting [2]) and > 15 µM in the assay with K562 (setting [3]).

As to `Fc1ccccc1CN1CC[C@H]2CN(c3ncnc4sc(CC(F)(F)F)cc34)CC[C@H]21` (single isomer, unassigned) [Compound 6], the IC50 in assay [1] (setting [2]) stood at 0.21 µM; in the assay on K562 (setting [3]), 9 µM.
